Reference: patent publication US20200400567A1, “FUSION POLYPEPTIDE” (PEKING UNIVERSITY, priority 2017, published 2020)

Tests used:
Format in all cases: cell-based
human ADRA2A receptor [1] = tested on: human ADRA2A receptor
Method: The perfusion system was set on a microscope, and including a solution-introduced system, an imaging cell, and a suction pump. During the perfusion process, the imaging cell was placed above the objective lens of the inverted microscope, and the slide with cultured cells was placed in the cell. The perfusion experiments of different drugs were performed by controlling the switches of the different pipes of the solution-introduced system. The perfusion speed was set to one drop or so per second. In order to ensure the stability of the focal plane, the liquid level was kept constant at all times, and the flow rate of each solution was adjusted accordingly. The aspiration speed was adjusted to maintain the liquid level in the cell over the slide.
The region of interest (ROI) and background area were selected manually prior to the perfusion experiment. The exposure time was set to less than 50 ms and the acquisition frequency was 5 seconds. The solution used for the perfusion was a physiological solution 4k (pH 7.3-7.4), which was used to formulate the drug to the desired concentration. The running time of the program was set to no more than 5 min. After using 4k to balance and stabilize the cells for about 60-90 s, the cells were perfused with drug for 60 s, and then washed with 4k. The excitation light for green fluorescent protein was 488 nm, and for red fluorescent protein was 568 nm. The laser intensity was adjusted according to the working state of the laser and the expression level of the cells.
After the end of the program, the time-fluorescence intensity data sheet was exported. The background was subtracted from the ROI to get the corresponding fluorescence value Ft, and the average value of the fluorescence value before adding the drug was used as the starting fluorescence F0 to calculate
The detection of the response of the GRAB sensor to the ligand (ΔF/F0) was performed by drug perfusion. The cells were maintained in a standard physiological solution, and the formula thereof is: […]
Fluorescence imaging data was processed using ImageJ software. For the fluorescence performance of GRAB sensors in HEK293T cells and neurons, the entire cell body was selected as the data processing region. The change in the fluorescence signal was usually indicated by its relative intensity change. The background area without the expression of the sensor was first subtracted from the fluorescence signal, so as to obtain the true expression intensity of the fluorescent protein.

human ADRA2A receptor [2] = test: Response kinetics of GRAB-NE2.2 by photolysis of NPEC-caged-NE; details: GRAB-NE2.2, 10 μM Yohimbine
Method: 100 μM NPEC-NE was prepared in DMSO. The photo-uncaging experiment was performed on a Nikon laser scanning confocal microscope. The light stimulation was 80% of the 405 nm laser for 76 ms, and the stimulation area was 2×2 pixel rectangle (1 pixel=0.62 μm).
By caging neurotransmitters, neurotransmitters can be quickly activated and released in a certain area, and the signal of the sensor was fast scanned by a microscope to obtain the time constant for the change in fluorescence intensity after the sensor binds to the ligand. The experiment was performed in HEK293T cells using the neurotransmitter NPEC caged NE (i.e., NPEC-NE) (FIG. 29a), 405 nm laser for activating NPEC-caged NE, and GRAB-NE2.2.

human ADRA2A receptor [3] = test: GRAB-NE2.1 in cultured rat cortical neurons, drug perfusion; details: GRAB-NE2.1 in neurons
Method: Newborn Sprague-Dawley rats were used for the primary culture of rat neurons. After the skin was washed with alcohol, the head of newborn rat was dissected with surgical instruments, and the vascular membrane on the surface of the cortex was carefully removed after removing the brain. The cortical tissue was cut into pieces and placed in a 0.25% trypsin solution, and digested for 10 minutes in an incubator at 37° C. The digestion was terminated with a DMEM medium containing 5% FBS, and the cells were further isolated by slowly pipetting up and down ten times with a pipette. After standing for 5 minutes, the pellet containing the tissue debris was discarded and the upper layer solution was collected and centrifuged at 1000 rpm for 5 minutes in a centrifuge. Thereafter, the supernatant was discarded and the neurons were resuspended with the Neurobasal+B27 medium used for culturing the neurons. The density was calculated using a cell counting chamber. After that, the cells were diluted at a density of 0.5-1×10^6 cells/ml and plated on the slides coated with poly-lysine (Sigma). Primary neurons were cultured in the Neurobasal+B27 medium, and a half of the medium was exchanged every two days. […]
The optical signal changes of neurons expressing neurotransmitter sensors were detected by perfusion with a neurotransmitter solution.

human ADRA2A receptor [4] = test: GRAB-NE2.1 in primary cultured rat cardiomyocytes, drug perfusion; details: GRAB-NE2.1 in cardiomyocytes, 1 μM Yohimbine
Text: The GRAB-NE2.1 sensor was transfected into primary cultured rat cardiomyocytes by liposomes, and the optical signal changes for the ligand binding and affinity for ligand were detected by drug perfusion.

COC(=O)[C@@H]1[C@H]2C[C@H]3c4[nH]c5ccccc5c4CCN3C[C@@H]2CC[C@@H]1O [Yohimbine]
effect of blocker on NE concentration-dependent changes (human ADRA2A receptor [1]; GRAB-NE2.0, 10 nM to 100 μM NE, 1 μM Yohimbine): completely inhibited
effect of blocker on ligand-induced NE sensor signal changes (human ADRA2A receptor [1]; GRAB-NE2.0, Yohimbine 2 μM): can inhibit
effect of blocker on NE-induced fluorescence signal (human ADRA2A receptor [1]; GRAB-NE2.1, Yohimbine 2 μM): can inhibit
effect of blocker on photolysis-induced fluorescence change (human ADRA2A receptor [2]): inhibited
effect of blocker on ligand-induced optical signal changes (human ADRA2A receptor [3]): can inhibit
effect of blocker on NE reaction (human ADRA2A receptor [4]): can inhibit
